We go through two molecules from US12180160B1, “1-(naphthalen-2-yloxy)-3-(piperidin-1-yl)propan-2-ol as an eco-friendly insecticidal agent against Spodoptera littoralis (boisd.)” (priority 2023, dated 2024).

≈ marks a conversion by molar mass, not a printed value.

This series has as its system Spodoptera littoralis larvae (2nd and 4th instars). Put plainly: Insecticidal bioassay screening (castor leaf dip). Type of series: in vivo. The conditions noted are these: for Toxic ratio: 72 h, fenoxycarb's LC50/compound's LC50 × 100; for LC50 (ppm): after 72 h of treatment. On the procedure: Five concentrations (200, 100, 50, 25, 12.5 ppm) were designed for this synthetic compound and the reference fenoxycarb compound as the dynamic ingredients based on ppm via diluting the commercial formulation.
In this experiment, castor leaves are immersed in each of the previously prepared concentrations of the components for 10 seconds and then left to dry for 60 minutes. Larvae of the second and fourth instars of each checked strain are prepared with treated leaves in gauze-covered glass containers for 72 hrs. An untreated control is made in which leaves are dipped in triton x-100 and distilled water only. Then the preserved leaves were removed & fresh, untreated leaves were provided for 72 hours. Three replicates (10 larvae each) were checked for each concentration. Daily inspection was carried out for all treatments and mortality percentages were recorded 3 days (72 hours) after treatment. The average mortality percentage was corrected employing Abbott's formula. The corrected mortality rate for each of the previously synthesized compounds is statistically calculated according to Finney (1970). Through this rate, the corresponding concentration test lines (LDP lines) are assessed. Fifty and ninety percent mortality are determined, and the regression values for the checked products were previously evaluated.

Regarding `OC(COc1ccc2ccccc2c1)CN1CCCCC1` (stereo not drawn) [Compound 1, 1-(naphthalen-2-yloxy)-3-(piperidin-1-yl)propan-2-ol], the Toxic ratio reads like this: (2nd instar larvae) 10.9; (4th instar larvae) 59.8. The same molecule yielded an LC50 (Spodoptera littoralis, foliar) of 25 µg/mL (≈ 87.7 µM). The “morphological effect on Spodoptera littoralis (FIGURE)” value (after administration of the compound) is reported as “morphological malformations”. Besides, the “activity against Spodoptera littoralis (in words)” value (compared with reference insecticide fenoxycarb) is listed as “active against Spodoptera littoralis”.
Consider `CCOC(=O)NCCOc1ccc(Oc2ccccc2)cc1` [Fenoxycarb, reference compound], for which the “LC50 (ppm)” value stood at 2.73 ppm (2nd instar larvae of S. littoralis) and 43.231 ppm (4th instar larvae of S. littoralis). Also, the Toxic ratio (2nd instar larvae) is 100 and the Toxic ratio (4th instar larvae) is on record as 1.
